Experimental data published in patent US20250221966A1, “RXFP1 AGONISTS” (BRISTOL-MYERS SQUIBB COMPANY, priority 2021, published 2025).

Each compound was assayed against T1, human RXFP1 (Homo sapiens, UniProt Q9HBX9) (assay: RXFP1 cAMP assay (hRXFP1 HEK293 cAMP assay, HTRF)). Conditions: HEK293 cells stably expressing human RXFP1, 30 min at room temperature, read-out: cAMP hRXFP1 HEK293 Assay EC50.
T1 construct: expressed in transfected cells
T1 sequence (Q9HBX9 1-757): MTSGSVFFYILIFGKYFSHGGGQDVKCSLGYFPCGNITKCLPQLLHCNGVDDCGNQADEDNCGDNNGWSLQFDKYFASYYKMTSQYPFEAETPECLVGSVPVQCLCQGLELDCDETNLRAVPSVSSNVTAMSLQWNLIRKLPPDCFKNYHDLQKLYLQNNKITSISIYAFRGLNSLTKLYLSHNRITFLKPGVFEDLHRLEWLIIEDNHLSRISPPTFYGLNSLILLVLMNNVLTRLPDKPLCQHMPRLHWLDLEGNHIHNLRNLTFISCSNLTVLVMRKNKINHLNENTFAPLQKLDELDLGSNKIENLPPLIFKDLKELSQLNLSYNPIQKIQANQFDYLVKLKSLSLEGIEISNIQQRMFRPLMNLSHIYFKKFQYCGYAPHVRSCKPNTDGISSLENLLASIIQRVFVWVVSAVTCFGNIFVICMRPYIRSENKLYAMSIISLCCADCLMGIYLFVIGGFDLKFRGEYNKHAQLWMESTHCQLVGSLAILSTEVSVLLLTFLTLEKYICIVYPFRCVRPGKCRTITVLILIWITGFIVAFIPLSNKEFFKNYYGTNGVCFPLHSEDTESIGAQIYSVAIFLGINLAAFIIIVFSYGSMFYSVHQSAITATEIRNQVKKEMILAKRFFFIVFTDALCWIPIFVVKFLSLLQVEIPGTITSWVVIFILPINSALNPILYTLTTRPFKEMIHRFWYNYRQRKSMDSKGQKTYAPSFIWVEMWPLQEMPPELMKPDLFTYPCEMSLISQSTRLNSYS
Type: cell-based
Method in brief: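 In a stable human RXFP1 HEK293 line, compounds acted for 30 min at RT in buffer with 0.5 mM IBMX. HTRF then quantified cellular cAMP.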
COc1cc(C(=O)N[C@H]2[C@@H](C(=O)Nc3ccc(F)c(C(F)(F)F)c3)[C@H]3CC[C@@H]2/C3=C\C2CC2)cc(C2=NOC3COCC23)c1 (single isomer, unassigned) [compound 696] was tested, and the EC50 was 966 nM. Compound COc1ccc(-c2cc(C(=O)N3CCCC3)ccc2F)cc1C(=O)N[C@@H]1C2CCC(/C2=C/c2cnoc2)[C@@H]1C(=O)Nc1ccc(F)c(C(F)(F)F)c1 (stereo partly shown) [compound 191] has an EC50 of 42 nM. Work on COc1ccc(C2=NOC3CS(=O)(=O)CC23)cc1C(=O)N[C@@H]1C2CCC(/C2=C/C2CC2)[C@@H]1C(=O)Nc1ccc(F)c(C(F)(F)F)c1 (single isomer, unassigned) [compound 443] yielded an EC50 of 5 nM. Compound COc1ccc(-c2cc(C(=O)NS(C)(=O)=O)ccc2F)cc1C(=O)N[C@@H]1C2CCC(/C2=C/Br)[C@@H]1C(=O)Nc1ccc(F)c(C(F)(F)F)c1 (stereo partly shown) [compound 161] has an EC50 of 110 nM. COc1ccc(C2=NO[C@H]3C[C@H](CO)C[C@@H]23)cc1C(=O)N[C@H]1[C@@H](C(=O)N[C@H](C)C2(C)CC2)[C@H]2CC[C@@H]1/C2=C\C1CCCC1 [compound 817] was tested, and the EC50 was 1.9 nM. In the case of COc1ccc(C2=NOC(C3(O)CCCC3)C2)cc1C(=O)N[C@H]1[C@@H](C(=O)Nc2ccc(F)c(C(F)(F)F)c2)[C@H]2CC[C@@H]1/C2=C\C1CC1 (single isomer, unassigned) [compound 488], the EC50 is reported as 8.2 nM. COc1ccc(-c2cc(C(N)=O)ccc2F)cc1C(=O)N[C@@H]1C2CCC(C2=C(C)C)[C@@H]1C(=O)Nc1ccc(F)c(C(F)(F)F)c1 (stereo partly shown) [Example 121] showed an EC50 of 16 nM. Work on COCc1ccccc1CNC(=O)[C@@H]1[C@H](NC(=O)c2cc(C3=NOC4COCC34)ccc2OC)[C@@H]2CC[C@H]1/C2=C/C1CC1 (stereo partly shown) [compound 641] yielded an EC50 of 217 nM. COc1ccc(-c2cc(C3=NOC4CC(CO)CC34)ccc2F)cc1C(=O)N[C@H]1[C@@H](C(=O)Nc2ccc(F)c(C(F)(F)F)c2)[C@H]2CC[C@@H]1/C2=C\C1CCCC1 (stereo partly shown) [compound 950] was tested, and the EC50 was 4.9 nM. COc1ccc(C2=NOC(C)(C(=O)O)C2)cc1C(=O)N[C@@H]1C2CCC(/C2=C/C2CC2)[C@@H]1C(=O)Nc1ccc(F)c(C(F)(F)F)c1 (stereo partly shown) [compound 421] showed an EC50 of 831 nM. COc1ccc(C2=NOC3COCC23)cc1C(=O)N[C@H]1[C@@H](C(=O)NCc2ccccc2C)[C@H]2CC[C@@H]1/C2=C\C1CC1 (stereo partly shown) [compound 585] was tested, and the EC50 was 78.3 nM. For COc1ccc(C2=NOC3CC(C#N)CC23)cc1C(=O)N[C@H]1[C@@H](C(=O)Nc2ccc(F)c(C(F)(F)F)c2)[C@H]2CC[C@@H]1/C2=C\C1CC1 (stereo partly shown) [compound 506], the EC50 was 12.7 nM. Work on CC/C=C1\C2CCC1[C@H](C(=O)Nc1ccc(F)c(C(F)(F)F)c1)[C@@H]2NC(=O)c1cc(-c2cc(C(=O)NC)ccc2F)ccc1OC (stereo partly shown) [compound 156] yielded an EC50 of 11 nM. For COc1ccc(C2=NOC3COCC23)cc1C(=O)N[C@H]1[C@@H](C(=O)NCc2ccccc2C#N)[C@H]2CC[C@@H]1/C2=C\C1CC1 (stereo partly shown) [compound 613], the EC50 was 137 nM. COC(=O)c1cccc(-c2ccc(OC)c(C(=O)N[C@H]3[C@@H](C(=O)Nc4ccc(F)c(C(F)(F)F)c4)[C@H]4CC[C@@H]3C4=C(C)C)c2)c1 [compound 86] showed an EC50 of 150 nM. COc1ccc(C2=NOC3COCC23)cc1C(=O)N[C@@H]1C2CCC(/C2=C/C2CC2)[C@@H]1C(=O)Nc1ccc(F)c(C(F)(F)F)c1 (stereo partly shown) [compound 418] gave an EC50 of 170 nM. For COc1c(Cl)cc(C2=NOC3CC(CO)CC23)cc1C(=O)N[C@H]1[C@@H](C(=O)Nc2ccc(F)c(C(F)(F)F)c2)[C@H]2CC[C@@H]1/C2=C\C1CC1 (stereo partly shown) [compound 798], the EC50 was 4.7 nM. COc1ccc(-c2cc(C3OC(=O)N(c4ccccc4)C3=O)ccc2F)cc1C(=O)N[C@@H]1C2CCC(/C2=C/C2CC2)[C@@H]1C(=O)Nc1ccc(F)c(C(F)(F)F)c1 (stereo partly shown) [compound 255] gave an EC50 of 3 nM. COc1ccc(-c2cc([C@H](OC(=O)NC3CCC3)C(F)(F)F)ccc2F)cc1C(=O)N[C@H]1[C@@H](C(=O)Nc2ccc(F)c(C(F)(F)F)c2)[C@H]2CC[C@@H]1/C2=C\C[C@@H](O)C(F)(F)F [compound 932] was tested, and the EC50 was 3.9 nM.
